In the supplement of paper PMC11061612:

Legend:
Assay in all cases: Bliss excess, mean over the matrix (fraction); higher = more synergy
[1] = test system: FADU (Head and Neck Carcinoma)
Summary of the method: (§1)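 Cell lines grown in DMEM/F12 or RPMI with 10% FBS were plated in 1536-well plates and held 24 hours at 37°C, 5% CO2 before 72 hours of exposure to two-drug dose matrices, with DMSO typically at 0.2%. CellTiter-Glo 2.0 luminescence gave viability, which was converted to inhibition. Vehicle wells were set to 0 and blank wells to 1. Combination Emax is the second-highest inhibition in the matrix, and Bliss excess is the observed combination effect minus the expected EA + EB − EA·EB, where EA and EB are the single-agent effects.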

GB-1 (Glioblastoma) = test system: GB-1 (Glioblastoma)
Summary of the method: as §1

[2] = test system: GP5d (Colorectal Carcinoma)
Summary of the method: as §1

[3] = test system: HCT-15 (Colorectal Carcinoma)
Summary of the method: as §1

[4] = test system: HSC-39 (Gastric Carcinoma)
Summary of the method: as §1

IST-MES1 (Mesothelioma) = test system: IST-MES1 (Mesothelioma)
Summary of the method: as §1

LN-229 (Glioblastoma) = test system: LN-229 (Glioblastoma)
Summary of the method: as §1

[5] = test system: MFE-280 (Endometrial Carcinoma)
Summary of the method: as §1

[6] = test system: MKN45 (Gastric Carcinoma)
Summary of the method: as §1

[7] = test system: NCI-H23 (Lung Adenocarcinoma)
Summary of the method: as §1

[8] = test system: NCI-H446 (Small Cell Lung Carcinoma)
Summary of the method: as §1

[9] = test system: PSN1 (Pancreatic Carcinoma)
Summary of the method: as §1

[10] = test system: REH (B-Lymphoblastic Leukemia)
Summary of the method: as §1

[11] = test system: RKN (Other Solid Carcinomas)
Summary of the method: as §1

SF268 (Low Grade Glioma) = test system: SF268 (Low Grade Glioma)
Summary of the method: as §1

SF539 (Glioblastoma) = test system: SF539 (Glioblastoma)
Summary of the method: as §1

[12] = test system: SK-PN-DW (Other Solid Carcinomas)
Summary of the method: as §1

[13] = test system: SU-DHL-10 (B-Cell Non-Hodgkin's Lymphoma)
Summary of the method: as §1

WM278 (Melanoma) = test system: WM278 (Melanoma)
Summary of the method: as §1

WM793B (Melanoma) = test system: WM793B (Melanoma)
Summary of the method: as §1

SMILES	Bliss excess [1]	Bliss excess (GB-1 (Glioblastoma))	Bliss excess [2]	Bliss excess [3]	Bliss excess [4]	Bliss excess (IST-MES1 (Mesothelioma))	Bliss excess (LN-229 (Glioblastoma))	Bliss excess [5]	Bliss excess [6]	Bliss excess [7]	Bliss excess [8]	Bliss excess [9]	Bliss excess [10]	Bliss excess [11]	Bliss excess (SF268 (Low Grade Glioma))	Bliss excess (SF539 (Glioblastoma))	Bliss excess [12]	Bliss excess [13]	Bliss excess (WM278 (Melanoma))	Bliss excess (WM793B (Melanoma))
CCN(CCO)CCCOc1ccc2c(Nc3cc(CC(=O)Nc4cccc(F)c4)[nH]n3)ncnc2c1 [AZD2811] + C[C@@H]1COCCN1C2=NC(=NC(=C2)C3(CC3)[S@](=N)(=O)C)C4=C5C=CNC5=NC=C4 [AZD6738] (first compound max 1 µM, 7x7, partner max 10 µM)	-0.0165	-0.009	-0.0575	-0.0592	-0.0107	-0.0613	-0.0563	-0.0223	-0.0439	-0.0308	-0.0514	-0.0366	-0.0518	0.0009	-0.027	-0.0262	-0.0306	-0.0609	0.0062	-0.0709
Cc1cc2ncnn2cc1Nc1ncc2c(n1)n(C1CCOCC1)c(=O)n2C [AZD7648] + CCN(CCO)CCCOc1ccc2c(Nc3cc(CC(=O)Nc4cccc(F)c4)[nH]n3)ncnc2c1 [AZD2811] (first compound max 10 µM, 7x7, partner max 1 µM)	0.0177	-0.0124	0.0648	-0.003	-0.0371	0.0188	0.0148	0.019	-0.0635	0.016	-0.0157	-0.0218	-0.0541	-0.0148	0.0023	0.0118	0.105	-0.0765	-0.0081	-0.0038
CCc1c2c(nc3ccc(O)cc13)-c1cc3c(c(=O)n1C2)COC(=O)[C@]3(O)CC [SN-38] + CN(C)CCCOc1ccc(-c2ccc3ncc4c(c3c2)n(C2CCOCC2)c(=O)n4C)cn1 [AZD0156] (first compound max 0.3 µM, 7x7, partner max 1 µM)	-0.0007	-0.0374	0.0624	0.0187	0.0344	0.0085	-0.0305	-0.0605	-0.049	-0.0247	0.121	-0.0198	-0.0093	0.0057	0.0609	0.0216	0.0355	-0.0242	0.042	-0.0295
COc1nnc2ccc(N3CCC(c4ccc(OCCN5CCN(C)C(=O)[C@H]5C)cc4)CC3)nn12 [AZD5153] + Cn1cnc2c(F)c(Nc3ccc(Br)cc3Cl)c(C(=O)NOCCO)cc21 [Selumetinib] (first compound max 1 µM, 7x7, partner max 10 µM)	-0.015	-0.035	-0.0805	0.0243	-0.0013	0.0054	-0.0426	0.0114	-0.0237	-0.0027	0.033	0.0717	-0.0495	-0.0073	-0.0504	-0.0255	-0.0326	0.0107	-0.0471	-0.074
CN(C)CCCOc1ccc(-c2ccc3ncc4c(c3c2)n(C2CCOCC2)c(=O)n4C)cn1 [AZD0156] + CCN(CCO)CCCOc1ccc2c(Nc3cc(CC(=O)Nc4cccc(F)c4)[nH]n3)ncnc2c1 [AZD2811] (first compound max 1 µM, 7x7, partner max 1 µM)	0.0626	-0.034	0.004	0.0156	-0.0113	-0.0439	-0.0331	0.0072	0.0034	-0.0119	-0.0587	-0.0336	-0.0137	-0.0417	-0.0204	-0.0196	0.0147	-0.0813	-0.0259	0.0212
C[C@@H](c1ccc2nccn2c1)n1nnc2ncc(-c3cnn(C)c3)nc21 [Savolitinib] + CC1(C)CCC(CN2CCN(c3ccc(C(=O)NS(=O)(=O)c4ccc(NCC5CCOCC5)c([N+](=O)[O-])c4)c(Oc4cnc5[nH]ccc5c4)c3)CC2)=C(c2ccc(Cl)cc2)C1 [Venetoclax] (first compound max 1 µM, 7x7, partner max 1 µM)	-0.107	-0.0626	-0.0572	-0.012	0.0096	-0.0318	-0.0679	-0.044	-0.0664	-0.0486	0.0246	-0.0411	-0.0192	-0.0529	-0.095	-0.0697	-0.0349	-0.0048	-0.0614	-0.0603
CN(CCO)CC[C@H](CSc1ccccc1)Nc1ccc(S(=O)(=O)NC(=O)c2ccc(N3CCC([C@@H](O)c4ccccc4-c4ccc(Cl)cc4)CC3)cc2)cc1S(=O)(=O)C(F)(F)F [AZD4320] + C[C@@H](Nc1cc(F)cc(F)c1)c1cc(C(=O)N(C)C)cc2c(=O)cc(N3CCOCC3)oc12 [AZD8186] (first compound max 1 µM, 7x7, partner max 3 µM)	0.041	-0.0289	-0.0378	0.0162	0.0229	0.0552	0.0166	0.0097	-0.0724	0.08	0.0281	-0.0651	0.0353	-0.0338	0.014	0.0425	-0.0087	0.0092	0.035	0.0434
COc1nnc2ccc(N3CCC(c4ccc(OCCN5CCN(C)C(=O)[C@H]5C)cc4)CC3)nn12 [AZD5153] + C=CCn1c(=O)c2cnc(Nc3ccc(N4CCN(C)CC4)cc3)nc2n1-c1cccc(C(C)(C)O)n1 [AZD1775] (first compound max 1 µM, partner max 1 µM)	-0.0273	0.056	-0.0279	-0.0738	-0.0516	-0.0347	-0.039	-0.0779	-0.105	-0.027	-0.0553	-0.0385	-0.0291	-0.0898	0.0037	-0.0303	-0.0722	-0.0044	-0.0364	-0.0265
CN(CCO)CC[C@H](CSc1ccccc1)Nc1ccc(S(=O)(=O)NC(=O)c2ccc(N3CCC([C@@H](O)c4ccccc4-c4ccc(Cl)cc4)CC3)cc2)cc1S(=O)(=O)C(F)(F)F [AZD4320] + CCN(CCO)CCCOc1ccc2c(Nc3cc(CC(=O)Nc4cccc(F)c4)[nH]n3)ncnc2c1 [AZD2811] (first compound max 1 µM, 7x7, partner max 1 µM)	0.0014	-0.0189	0.0026	-0.0189	-0.0338	-0.0265	-0.0074	0.0821	-0.0438	0.0244	-0.0505	-0.0029	0.175	-0.0481	0.0843	0.0862	0.0024	-0.0949	0.0469	0.0038
CN(CCO)CC[C@H](CSc1ccccc1)Nc1ccc(S(=O)(=O)NC(=O)c2ccc(N3CCC([C@@H](O)c4ccccc4-c4ccc(Cl)cc4)CC3)cc2)cc1S(=O)(=O)C(F)(F)F [AZD4320] + CN(C)CCCOc1ccc(-c2ccc3ncc4c(c3c2)n(C2CCOCC2)c(=O)n4C)cn1 [AZD0156] (first compound max 1 µM, 7x7, partner max 1 µM)	-0.01	-0.0272	-0.0087	-0.0438	0.0099	-0.041	-0.0218	0.0113	-0.0612	-0.0118	-0.0002	-0.0308	0.0092	-0.0417	-0.0012	-0.0163	-0.0302	-0.0158	-0.0148	-0.0564
